According to US11999676B2, “Vesicular monoamine transporter-2 ligands and their use in the treatment of psychostimulant abuse” (priority 2016, dated 2024):
Like-named read-outs stand apart in the source and are kept apart here.

Experiments:
[1] = molecular target: T1, VMAT2 (Rattus norvegicus (Rat), UniProt Q01827); settings: rat brain synaptic vesicles; read-out: [3H]DTBZ binding (Ki) VMAT2
[2] = molecular target: T1, VMAT2; assay: [3H]Dopamine ([3H]DA) uptake assay, vesicular preparation; format: biochemical
[3] = Microsomal stability assay, human liver microsomes; settings: for half-life at 0.08 µM: both, human, pH 7.4, Microsomal stability assays: Half-life
Method: (§1) Each plate holds triplicate samples of two controls (0.4 mM) and up to 14 compounds (0.08 mM) in rat and human liver microsomes. Aliquots of each well of the plate (175 μl of each well) were transferred from the master plate into 5 assay plates. For 0-hr time point, pre-cooled (4° C.) internal standard (437.5 μL, 2 μM caffeine in methanol) was added to the first plate before the reaction starts. NADPH regenerating system solution A (6.05 ml, Fisher Scientific, #NC9255727) was combined with NADPH regenerating system solution B (1.21 ml, Fisher Scientific, #NC9016235) in potassium phosphate buffer (15.8 ml, 0.1 M, pH 7.4, 37° C.). The resulting NADPH solution (43.8 μl) was added to each well of all the 96-well assay plates and mixed with pipette briefly making the final protein and compound concentrations respectively: 0.5 mg/ml, 0.08 μM (0.4 μM for controls). Plates were sealed, and all plates except the 0-hr plate were incubated at 37° C., shaken at a speed of 60 rpm. A single assay plate was tested at each time point: 0.5 hr, 1 hr, 2 hr, and 4 hr. At each time point, 437.5 μL of pre-cooled internal standard was added each well of the plate to quench the reaction. […] 120 μl supernatant was transferred to a 96-well plate, centrifuged again and analyzed by UPLC-MS (Waters Inc., Milford, MA). The compounds and internal standard were detected by selected ion recording (SIR).
(§2) The amount of material was measured as a ratio of peak area to the internal standard and graphed. Using the slope from the initial linear portion of this curve, the degradation rate constant is calculated using equation [1].

[4] = molecular target: hERG channel (Homo sapiens (Human), UniProt Q12809); assay: [3H]Dofetilide binding assay, HEK-293 cell membrane preparation
[5] = in vitro; settings: both, human, microsomes, pH 7.4, Microsomal stability assays: Clearance
Method: as §1, §2

[6] = in vitro; settings: female, Sprague-Dawley, rat, microsomes, pH 7.4, Microsomal stability assays: Clearance
Method: as §1, §2

[7] = Microsomal stability assay, rat liver microsomes; settings: female, Sprague-Dawley, rat, pH 7.4, Microsomal stability assays: Half-life
Method: as §1, §2

[8] = rat striatal synaptic vesicles, read-out: [3H]DA uptake (Ki) VMAT2
[9] = [3H]DA uptake, rat, read-out: VMAT2 (rat) Inhibition: Mean Ki ± Standard Deviation
[10] = [3H]dofetilide, HEK-293 cell membranes, read-out: hERG Binding: Mean Ki ± Standard Deviation

Sequence of hERG channel (Q12809 whole entry): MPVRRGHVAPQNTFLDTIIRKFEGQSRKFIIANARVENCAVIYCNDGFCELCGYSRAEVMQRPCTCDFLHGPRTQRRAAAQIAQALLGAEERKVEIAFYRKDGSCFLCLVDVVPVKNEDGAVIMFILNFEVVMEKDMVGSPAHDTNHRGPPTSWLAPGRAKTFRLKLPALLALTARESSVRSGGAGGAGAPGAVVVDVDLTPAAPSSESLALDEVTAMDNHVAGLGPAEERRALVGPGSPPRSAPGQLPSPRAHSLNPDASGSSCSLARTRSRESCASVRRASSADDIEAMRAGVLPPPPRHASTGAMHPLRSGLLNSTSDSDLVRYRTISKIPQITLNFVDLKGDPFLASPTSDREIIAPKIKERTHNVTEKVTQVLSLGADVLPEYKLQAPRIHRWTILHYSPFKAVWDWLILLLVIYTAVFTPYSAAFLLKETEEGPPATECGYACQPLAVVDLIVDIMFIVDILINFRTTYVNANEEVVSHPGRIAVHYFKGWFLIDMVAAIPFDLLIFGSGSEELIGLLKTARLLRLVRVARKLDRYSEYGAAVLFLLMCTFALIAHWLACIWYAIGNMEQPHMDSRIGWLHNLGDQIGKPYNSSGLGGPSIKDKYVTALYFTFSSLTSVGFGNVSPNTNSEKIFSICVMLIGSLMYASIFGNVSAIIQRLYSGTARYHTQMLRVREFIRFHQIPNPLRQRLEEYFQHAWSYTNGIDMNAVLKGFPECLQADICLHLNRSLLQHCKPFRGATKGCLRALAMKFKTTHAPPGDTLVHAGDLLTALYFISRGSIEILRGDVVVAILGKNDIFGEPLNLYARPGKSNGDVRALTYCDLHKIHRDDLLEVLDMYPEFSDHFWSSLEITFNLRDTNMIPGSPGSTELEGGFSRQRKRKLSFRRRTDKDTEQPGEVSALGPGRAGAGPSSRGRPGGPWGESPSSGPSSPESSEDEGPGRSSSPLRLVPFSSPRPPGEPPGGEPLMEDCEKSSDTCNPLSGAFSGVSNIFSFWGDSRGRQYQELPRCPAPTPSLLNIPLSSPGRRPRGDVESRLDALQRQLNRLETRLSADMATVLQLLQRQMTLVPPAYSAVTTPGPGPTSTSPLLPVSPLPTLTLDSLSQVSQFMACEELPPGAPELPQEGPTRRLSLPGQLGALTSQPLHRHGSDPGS

Row | SMILES | Ki [1] | Ki [2, 8] | further results
1 | C[C@H](Cc1ccccc1)NCCCc1ccccc1 [Compound 5] | 910 ± 590 nM | 6 ± 1 nM | 
2 | C[C@@H](Cc1ccccc1)NCCCc1ccccc1 [Compound 6] | 750 ± 140 nM | 65 ± 4 nM | 
3 | CC(Cc1ccccc1)N(C)CCCc1ccccc1 (stereo not drawn) [Compound 7] | 1560 ± 470 nM | 96 ± 10 nM | 
4 | COc1ccc(CCCNC(C)Cc2ccccc2)cc1 (stereo not drawn) [Compound 8] | 2200 ± 110 nM | 14 ± 3 nM | 
5 | CC(Cc1ccc(Br)cc1)NCCCc1ccccc1 (stereo not drawn) [Compound 11] | 700 ± 63 nM | 8 ± 1 nM | 
6 | CC(Cc1ccc(Br)cc1)NCCCCc1ccccc1 (stereo not drawn) [Compound 14] | 81 ± 16 nM | 3 ± 0.3 nM | 
7 | CC(Cc1ccccc1)NCCCCc1ccccc1 (stereo not drawn) [Compound 15] | 190 ± 20 nM | 3 ± 2 nM | 
8 | COc1ccc(CCCNC(C)Cc2ccc(Br)cc2)cc1 (stereo not drawn) [Compound 16] | 460 ± 80 nM | 12 ± 3 nM | 
9 | CC(Cc1ccccc1)NCCCCCc1ccccc1 (stereo not drawn) [Compound 17] | 630 nM | 14 ± 1 nM | 
10 | CC(Cc1ccccc1)NCCOc1ccccc1 (stereo not drawn) [Compound 19] | 4100 ± 300 nM | 59 ± 7 nM | 
11 | CC(Cc1ccc(Br)cc1)NCCOc1ccccc1 (stereo not drawn) [Compound 20] | 2000 ± 100 nM | 13 ± 9 nM | 
12 | CC(Cc1ccccc1)NCCc1ccc(O)cc1 (stereo not drawn) [Compound 21] | 1500 ± 200 nM | 120 ± 10 nM | 
13 | CC(Cc1ccccc1)NCCc1ccc(OCc2ccccc2)c(OCc2ccccc2)c1 (stereo not drawn) [Compound 22] | 2000 ± 100 nM | 120 ± 1 nM | 
14 | CC(Cc1ccccc1)NCCc1ccc(O)c(O)c1 (stereo not drawn) [Compound 23] | 3400 ± 600 nM | 92 ± 17 nM | 
15 | COc1ccc(CC(C)NCCc2ccccc2)cc1 (stereo not drawn) [Compound 24] | 3770 ± 990 nM | 74 ± 2 nM | 
16 | COc1ccc(CC(C)N(C)CCc2ccccc2)cc1 (stereo not drawn) [Compound 25] | 11900 ± 1840 nM | 460 ± 75 nM | 
17 | COc1ccc(CC(C)NCCCc2ccccc2)cc1 (stereo not drawn) [Compound 26] | 1270 ± 90 nM | 22 ± 3 nM | 
18 | COc1ccc(CCCNC(C)Cc2ccc(OC)cc2)cc1 (stereo not drawn) [Compound 29] | 410 ± 140 nM | 11 ± 2 nM | 
19 | COc1ccc(CC(C)N(C)CCCc2ccccc2)cc1 (stereo not drawn) [Compound 30] | 7110 ± 820 nM | 270 ± 38 nM | 
20 | COc1ccc(CCC(C)NCCc2ccccc2)cc1 (stereo not drawn) [Compound 31] | 2400 ± 100 nM | 62 ± 29 nM | 

Row | SMILES | Ki [1] | Ki [2, 8] | further results
21 | COc1ccc(CCC(C)NCCCc2ccccc2)cc1 (stereo not drawn) [Compound 32] | 4700 ± 400 nM | 30 ± 2 nM | 
22 | COc1ccc(CCNC(C)CCc2ccc(OC)cc2)cc1 (stereo not drawn) [Compound 33] | 1500 ± 200 nM | 60 ± 7 nM | 
23 | COc1ccc(CCC(C)NCCc2ccc(Br)cc2)cc1 (stereo not drawn) [Compound 34] | 870 ± 30 nM | 10 ± 4 nM | 
24 | CC(Cc1ccc(O)cc1)NCCc1ccccc1 (stereo not drawn) [Compound 35] | 2600 ± 400 nM | 47 ± 6 nM | 
25 | COc1ccc(CCCNC(C)Cc2ccc(O)cc2)cc1 (stereo not drawn) [Compound 36] | 230 ± 60 nM | 72 ± 30 nM | 
26 | CC(Cc1ccc(O)cc1)NCCCc1ccccc1 (stereo not drawn) [Compound 37] | 820 ± 270 nM | 33 ± 8 nM | 
27 | CC(Cc1ccc(F)cc1)NCCc1ccccc1 (stereo not drawn) [Compound 38] | 2500 ± 1600 nM | 69 ± 9 nM | 
28 | CC(Cc1ccc(F)cc1)NCCCc1ccccc1 (stereo not drawn) [Compound 39] | 1300 ± 300 nM | 10 ± 0.2 nM | 
29 | COc1ccc(CCCNC(C)Cc2ccc(F)cc2)cc1 (stereo not drawn) [Compound 40] | 1700 ± 400 nM | 17 ± 3 nM | 
30 | CC(Cc1ccc([N+](=O)[O-])cc1)NCCc1ccccc1 (stereo not drawn) [Compound 41] | 5100 ± 1200 nM | 60 ± 7 nM | 
31 | CC(Cc1ccc([N+](=O)[O-])cc1)NCCCc1ccccc1 (stereo not drawn) [Compound 42] | 2000 ± 300 nM | 13 ± 4 nM | 
32 | COc1ccc(CCCNC(C)Cc2ccc([N+](=O)[O-])cc2)cc1 (stereo not drawn) [Compound 43] | 1400 ± 400 nM | 8 ± 2 nM | 
33 | CC(Cc1ccc(N)cc1)NCCc1ccccc1 (stereo not drawn) [Compound 44] | 17000 nM | 210 ± 80 nM | 
34 | CC(Cc1ccc(N)cc1)NCCCc1ccccc1 (stereo not drawn) [Compound 45] | 2800 ± 700 nM | 36 ± 3 nM | 
35 | COc1ccc(CC(C)NCCCc2ccccc2)cc1OC (stereo not drawn) [Compound 46] | 3800 ± 100 nM | 140 ± 13 nM | 
36 | COc1ccc(CC(C)NCCCCc2ccccc2)cc1OC (stereo not drawn) [Compound 47] | 1100 ± 100 nM | 29 ± 11 nM | 
37 | CC(CCc1ccccc1)NCCc1ccccc1 (stereo not drawn) [Compound 48] | 1600 ± 330 nM | 50 ± 4 nM | 
38 | CC(CCc1ccccc1)N(C)CCc1ccccc1 (stereo not drawn) [Compound 49] | 29800 ± 11200 nM | 84 ± 4 nM | 
39 | CC(CCc1ccccc1)NCCCc1ccccc1 (stereo not drawn) [Compound 50] | 4810 ± 1130 nM | 50 ± 12 nM | 
40 | CC(CCc1ccccc1)N(C)CCCc1ccccc1 (stereo not drawn) [Compound 51] | 17200 ± 6330 nM | 360 ± 34 nM | 

Row | SMILES | Ki [1] | Ki [2, 8] | further results
41 | COc1ccc(CCCNC(C)CCc2ccccc2)cc1 (stereo not drawn) [Compound 52] | 3200 ± 100 nM | 26 ± 2 nM | 
42 | COc1ccc(CCCNC(C)CCc2ccc(OC)cc2)cc1 (stereo not drawn) [Compound 53] | 1500 ± 700 nM | 24 ± 6 nM | 
43 | FCC(Cc1ccc(-c2cncnc2)cc1)NCCCc1ccc(F)cc1 (stereo not drawn) [Compound 68] |  |  | half-life at 0.08 µM ([3]; pooled liver microsomes): < 6 min; Ki [2, 9]: 5.53 ± 0.567 nM; Ki [4, 10]: 633 ± 46.3 nM; CLint scaled at 0.08 µM [5]: > 400 mL/min/kg
44 | FCC(Cc1ccc(-c2cncnc2)cc1)NCCCc1ccc(F)cc1 (stereo not drawn) [Compound 69] |  |  | CLint scaled at 0.08 µM [6]: 76.8 mL/min/kg; half-life at 0.08 µM ([7]; liver microsomes): 36 min
45 | O=CNc1ccc(CC(CF)NCCCc2ccc(F)cc2)cc1 (stereo not drawn) [Compound 72] |  |  | half-life at 0.08 µM ([3]; pooled liver microsomes): 48 min; Ki [2, 9]: 16.4 ± 2.89 nM; Ki [4, 10]: 516 ± 63.6 nM; CLint scaled at 0.08 µM [5]: 26.5 mL/min/kg
46 | O=CNc1ccc(CC(CF)NCCCc2ccc(F)cc2)cc1 (stereo not drawn) [Compound 73] |  |  | CLint scaled at 0.08 µM [6]: 43.7 mL/min/kg; half-life at 0.08 µM ([7]; liver microsomes): 66 min
47 | CC(Cc1ccc(NC=O)cc1)N(C=O)CCCc1ccccc1 (stereo not drawn) [Compound 75] |  |  | half-life at 0.08 µM ([3]; pooled liver microsomes): 12 min; Ki [2, 9]: 22700 ± 432 nM; CLint scaled at 0.08 µM [5]: 121 mL/min/kg
48 | CC(Cc1ccc(NC=O)cc1)N(C=O)CCCc1ccccc1 (stereo not drawn) [Compound 76] |  |  | CLint scaled at 0.08 µM [6]: 56 mL/min/kg; half-life at 0.08 µM ([7]; liver microsomes): 48 min
49 | Nc1ccc(CC(CF)NCCCc2ccc(F)cc2)cc1 (stereo not drawn) [Compound 80, [N-3-(4-fluorophenyl)-propan-1-yl]-3-(4-aminophenyl)-1-fluoro-2-propylamine] |  |  | half-life at 0.08 µM ([3]; pooled liver microsomes): 42 min; CLint scaled at 0.08 µM [5]: 29.5 mL/min/kg
50 | Fc1ccc(CCCNC(Cc2ccc(F)cc2)C(F)F)cc1 (stereo not drawn) [Compound 82] |  |  | half-life at 0.08 µM ([3]; pooled liver microsomes): 48 min; CLint scaled at 0.08 µM [5]: 26.3 mL/min/kg
51 | FCC(Cc1ccc(-c2cccnc2)cc1)NCCCc1ccc(F)cc1 (stereo not drawn) [Compound 84] |  |  | Microsomal stability assays: Half-life [3]: 6 min; CLint scaled at 0.08 µM [5]: 173 mL/min/kg
52 | O=[N+]([O-])c1ccc(CCCNC(CF)Cc2ccc(F)cc2)cc1 (stereo not drawn) [Compound 123] |  |  | half-life at 0.08 µM ([3]; pooled human liver microsomes): 72 min; Ki [4]: 223 ± 199 nM; CLint scaled at 0.08 µM [5]: 18.1 mL/min/kg
53 | O=[N+]([O-])c1ccc(CCCNC(CF)Cc2ccc(F)cc2)cc1 (stereo not drawn) [Compound 124] |  |  | CLint scaled at 0.08 µM [6]: 116 mL/min/kg; half-life at 0.08 µM ([7]; rat liver microsomes): 24 min
54 | OCC(Cc1ccc(F)cc1)NCCCc1ccncc1 (stereo not drawn) [Compound 129] |  |  | half-life at 0.08 µM ([3]; pooled liver microsomes): > 240 min; CLint scaled at 0.08 µM [5]: < 5.2 mL/min/kg
55 | OCC(Cc1ccc(F)cc1)NCCCn1cccn1 (stereo not drawn) [Compound 130] |  |  | half-life at 0.08 µM ([3]; pooled liver microsomes): 36 min; Ki [2, 9]: 634 ± 195 nM; CLint scaled at 0.08 µM [5]: 37.3 mL/min/kg
56 | OCC(Cc1ccc(F)cc1)NCCCn1cccn1 (stereo not drawn) [Compound 131] |  |  | CLint scaled at 0.08 µM [6]: 139 mL/min/kg; half-life at 0.08 µM ([7]; liver microsomes): 18 min
57 | FCC(Cc1ccc(F)cc1)NCCCc1ccncc1 (stereo not drawn) [Compound 143] |  |  | half-life at 0.08 µM ([3]; pooled liver microsomes): 30 min; CLint scaled at 0.08 µM [5]: 98.1 mL/min/kg
58 | FCC(Cc1ccc(F)cc1)NCCCc1ccnc2ccccc12 (stereo not drawn) [Compound 149] |  |  | Microsomal stability assays: Half-life [3]: 6 min; CLint scaled at 0.08 µM [5]: 162 mL/min/kg
59 | OCC(Cc1ccc(F)cc1)NCCCc1ccc(Br)cc1 (stereo not drawn) [Compound 154] |  |  | half-life at 0.08 µM ([3]; pooled liver microsomes): > 240 min; Ki [2, 9]: 69.1 ± 13.6 nM; CLint scaled at 0.08 µM [5]: < 5.2 mL/min/kg
